From publication PMC12400508 (RSC Advances, 2025)
In brackets after ≈: the same amount, converted by molar mass. Read-outs that look alike come from different tables or passages of the source.

What was measured:
mc^26230 pMV261 = assay: microbe, parasite or virus in culture; type: cell-based; conditions: Mycobacterium tuberculosis, read-out: MIC, pMV261
Mtb mc^26230 = assay: microbe, parasite or virus in culture; type: cell-based, Mycobacterium tuberculosis; conditions: for MIC (MIC99): Mtb mc^26230, 6 days, Table 1 and text; for MIC: Mycobacterium tuberculosis
THP-1 cells = assay: Cytotoxicity assay in THP-1 cells; type: cell-based, Human; conditions: for IC50: Homo sapiens, THP-1, 72 h, read-out: IC50 (reduces the viability of THP-1 cells by 50%); for SI, selectivity index (IC50/MIC): THP-1 IC50 / Mtb MIC
[1] = read-out: MIC, mc^26230 (parental strain)

Row | SMILES | MIC (mc^26230 pMV261) [µg/mL] | MIC (MIC99) (Mtb mc^26230) [µg/mL] | MIC (Mtb mc^26230) [µg/mL] | MIC (Mtb mc^26230; read-out: MIC, Wild-type) [µg/mL] | MIC (Mtb mc^26230; [1]) [µg/mL] | IC50 (THP-1 cells) [µg/mL] | SI, selectivity index (IC50/MIC) (THP-1 cells)
1 | O=C1N=C(NNC(=O)c2ccncc2)S/C1=C\c1ccc(Cl)cc1 [9n] | 25 (≈ 69.7 µM) | 12.5 (≈ 34.8 µM) | 12.5 (≈ 34.8 µM) | 12.5 (≈ 34.8 µM) | 12.5 (≈ 34.8 µM) | – | –
2 | Cc1ccccc1/C=C1\SC(NNC(=O)c2ccncc2)=NC1=O [9d] | 3.12 (≈ 9.22 µM) | – | 1.56 (≈ 4.61 µM) | 1.56 (≈ 4.61 µM) | 1.56 (≈ 4.61 µM) | 21 (≈ 62.1 µM) | 14
3 | NNC(=O)c1ccncc1 [INH, isoniazid, reference compound] | 0.078 (≈ 0.569 µM) | – | 0.039 (≈ 0.284 µM) | 0.078 (≈ 0.569 µM) | 0.039 (≈ 0.284 µM) | > 100 | >100
4 | CO[C@H]1/C=C/O[C@@]2(C)Oc3c(C)c(O)c4c(O)c(c(/C=N/N5CCN(C)CC5)c(O)c4c3C2=O)NC(=O)/C(C)=C\C=C\[C@H](C)[C@H](O)[C@@H](C)[C@@H](O)[C@@H](C)[C@H](OC(C)=O)[C@@H]1C [RIF, reference compound] | 0.039 (≈ 0.0474 µM) | – | – | 0.039 (≈ 0.0474 µM) | – | – | –
5 | O=C1N=C(NNC(=O)c2ccncc2)S/C1=C\c1ccc(F)cc1 [9j] | 12.5 (≈ 36.5 µM) | 12.5 (≈ 36.5 µM) | 12.5 (≈ 36.5 µM) | 12.5 (≈ 36.5 µM) | 12.5 (≈ 36.5 µM) | 18 (≈ 52.6 µM) | 1.4
6 | O=C1N=C(NNC(=O)c2ccncc2)S/C1=C\c1ccccc1Cl [9p] | – | – | – | – | 25 (≈ 69.7 µM) | – | –
7 | O=C1N=C(NNC(=O)c2ccncc2)S/C1=C\c1ccccc1F [9l] | – | – | – | – | 25 (≈ 73 µM) | – | –
